Test results taken from PubChem BioAssay (NCI).
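Results reflect a 48-hour exposure of cells in 96-well plates to compound at five concentrations. At the GI50, growth is halved. Definition used: TGI = concentration required for complete inhibition of growth.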

What was measured:
Experiment in all cases: NCI-60 cell line screen, 48 h
[1] = test system: 786-0 renal
[2] = test system: A498 renal
[3] = test system: A549 NSCLC
[4] = test system: ACHN renal
[5] = test system: BT-549 breast
[6] = test system: CAKI-1 renal
[7] = test system: CCRF-CEM leukemia
[8] = test system: COLO 205 colon
[9] = test system: DU-145 prostate
[10] = test system: EKVX NSCLC
[11] = test system: HCC-2998 colon
[12] = test system: HCT-116 colon
[13] = test system: HCT-15 colon
[14] = test system: HL-60(TB) leukemia
[15] = test system: HOP-62 NSCLC
[16] = test system: HOP-92 NSCLC
[17] = test system: HS 578T breast
[18] = test system: HT29 colon
[19] = test system: IGROV1 ovarian
[20] = test system: K-562 leukemia
[21] = test system: KM12 colon
[22] = test system: LOX IMVI melanoma
[23] = test system: M14 melanoma
[24] = test system: MALME-3M melanoma
[25] = test system: MCF7 breast
[26] = test system: MDA-MB-231 breast
[27] = test system: MDA-MB-435
[28] = test system: MOLT-4 leukemia
[29] = test system: NCI-H226 lung
[30] = test system: NCI-H23 lung
[31] = test system: NCI-H460 lung
[32] = test system: NCI-H522 lung
[33] = test system: NCI/ADR-RES ovarian
[34] = test system: OVCAR-3 ovarian
[35] = test system: OVCAR-4 ovarian
[36] = test system: OVCAR-5 ovarian
[37] = test system: OVCAR-8 ovarian
[38] = test system: PC-3 prostate
[39] = test system: RPMI-8226 leukemia
[40] = test system: RXF 393 renal
[41] = test system: SF-268 CNS
[42] = test system: SF-295 CNS
[43] = test system: SF-539 CNS
[44] = test system: SK-MEL-2 melanoma
[45] = test system: SK-MEL-28 melanoma
[46] = test system: SK-MEL-5 melanoma
[47] = test system: SK-OV-3 ovarian
[48] = test system: SN12C renal
[49] = test system: SNB-19 CNS
[50] = test system: SNB-75 CNS
[51] = test system: SR leukemia
[52] = test system: SW-620 colon
[53] = test system: T-47D breast
[54] = test system: TK-10 renal
[55] = test system: U251 CNS
[56] = test system: UACC-257 melanoma
[57] = test system: UACC-62 melanoma
[58] = test system: UO-31 renal

For `Cc1cc(-c2ccc(C3C(C#N)=C(N)Oc4c3c(=O)oc3ccccc43)cc2)cnc1F` (stereo unspecified), the GI50 [1] was 50.8 µM, the TGI [1] was over 100 µM and the GI50 [2] was over 100 µM. For the same molecule, the TGI [2] was over 100 µM, the GI50 [3] was over 100 µM and the TGI [3] was over 100 µM. The GI50 [4] was 55.9 µM, the TGI [4] was over 100 µM and the GI50 [5] was 23.9 µM. It also gave a TGI [5] of over 100 µM, a GI50 [6] of 41 µM and a TGI [6] of over 100 µM. For the same molecule, the GI50 [7] was 0.535 µM, the TGI [7] was over 100 µM and the GI50 [8] was over 100 µM. It also gave a TGI [8] of over 100 µM, a GI50 [9] of 49 µM and a TGI [9] of over 100 µM. The GI50 [10] was 71.3 µM, the TGI [10] was over 100 µM and the GI50 [11] was 89 µM. For the same molecule, the TGI [11] was over 100 µM, the GI50 [12] was 29.4 µM and the TGI [12] was over 100 µM. For the same molecule, the GI50 [13] was 42.3 µM, the TGI [13] was over 100 µM and the GI50 [14] was 43.4 µM. It also gave a TGI [14] of over 100 µM, a GI50 [15] of 88.5 µM and a TGI [15] of over 100 µM. For the same molecule, the GI50 [16] was 1.63 µM, the TGI [16] was 74.1 µM and the GI50 [17] was 67.8 µM. It also gave a TGI [17] of over 100 µM, a GI50 [18] of 43.4 µM and a TGI [18] of over 100 µM. The GI50 [19] was over 100 µM, the TGI [19] was over 100 µM and the GI50 [20] was 35 µM. The TGI [20] was over 100 µM, the GI50 [21] was over 100 µM and the TGI [21] was over 100 µM. It also gave a GI50 [22] of 44.4 µM, a TGI [22] of over 100 µM and a GI50 [23] of over 100 µM. The TGI [23] was over 100 µM, the GI50 [24] was over 100 µM and the TGI [24] was over 100 µM. The GI50 [25] was 48.9 µM, the TGI [25] was over 100 µM and the GI50 [26] was over 100 µM. The TGI [26] was over 100 µM, the GI50 [27] was over 100 µM and the TGI [27] was over 100 µM. It also gave a GI50 [28] of 27.8 µM, a TGI [28] of over 100 µM and a GI50 [29] of 34.2 µM. It also gave a TGI [29] of over 100 µM, a GI50 [30] of 38.7 µM and a TGI [30] of over 100 µM. The GI50 [31] was over 100 µM, the TGI [31] was over 100 µM and the GI50 [32] was 22.5 µM. It also gave a TGI [32] of over 100 µM, a GI50 [33] of 68.7 µM and a TGI [33] of over 100 µM. For the same molecule, the GI50 [34] was 33.9 µM, the TGI [34] was over 100 µM and the GI50 [35] was 39.3 µM. It also gave a TGI [35] of over 100 µM, a GI50 [36] of 85.9 µM and a TGI [36] of over 100 µM. The GI50 [37] was over 100 µM, the TGI [37] was over 100 µM and the GI50 [38] was 40.2 µM. The TGI [38] was over 100 µM, the GI50 [39] was 38.4 µM and the TGI [39] was over 100 µM. The GI50 [40] was 12.8 µM, the TGI [40] was 77.3 µM and the GI50 [41] was 64.9 µM. The TGI [41] was over 100 µM, the GI50 [42] was 88 µM and the TGI [42] was over 100 µM. The GI50 [43] was 46 µM, the TGI [43] was over 100 µM and the GI50 [44] was 35.3 µM. It also gave a TGI [44] of over 100 µM, a GI50 [45] of over 100 µM and a TGI [45] of over 100 µM. It also gave a GI50 [46] of 81 µM, a TGI [46] of over 100 µM and a GI50 [47] of 59.8 µM. It also gave a TGI [47] of over 100 µM, a GI50 [48] of 81.2 µM and a TGI [48] of over 100 µM. For the same molecule, the GI50 [49] was over 100 µM, the TGI [49] was over 100 µM and the GI50 [50] was 22.4 µM. It also gave a TGI [50] of over 100 µM, a GI50 [51] of 33.6 µM and a TGI [51] of over 100 µM. The GI50 [52] was 85.3 µM, the TGI [52] was over 100 µM and the GI50 [53] was 29.5 µM. It also gave a TGI [53] of over 100 µM, a GI50 [54] of 39.3 µM and a TGI [54] of over 100 µM. For the same molecule, the GI50 [55] was over 100 µM, the TGI [55] was over 100 µM and the GI50 [56] was over 100 µM. It also gave a TGI [56] of over 100 µM, a GI50 [57] of 43.8 µM and a TGI [57] of over 100 µM. It also gave a GI50 [58] of 26.9 µM and a TGI [58] of over 100 µM.
